Where a SMILES comes first, the peptide text is derived from it. [ ]: non-standard residue; d: D form.
Tests used:
Type in all cases: cell-based
C. quillermondiae = assay: MIC, clinical yeast strains; details: clinical yeast strain 1; D-form peptide; concentrations tested 0.125 to 128 μg/ml
In short: (§1)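 MIC = lowest peptide concentration without visual growth after 20–24 h at 37° C. Range 0.125–128 μg/ml, inoculum 5.0×10^5 cfu/ml, microdilution format. Antifungal tests used potato dextrose broth; bacterial tests used MH broth.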

[1] = test system: clinical strains of Acinetobacter baumannii; assay: MIC, microdilution, clinical strains; set-up: unit: μg/ml; details: 0.02% BSA, 0.2% acetic acid
Procedure: Minimum inhibition concetrations (MICs) were determined against Escherichia coli (ATCC 25922), Staphylococcus aureus (ATCC 25923), Klebsiella pneumoniae (ATCC 10031) and Pseudomonas aeruginosa (ATCC 27853). Also clinical strains of E. coli, K. pneumoniae, E. cloacae, P. aeruginosa, Serratia marcescens, Proteus mirabilis, S. pneumoniae, Acinetobacter baumannii, A. johnsonii and S. aureus were used for MICs assays. Additionally, clinical strains of yeast including Candida albicans, C. glabrata, C. parapsilosis and C. quillermondiae were used. The susceptibility of these microorganisms to Chain peptides were determined using micro broth dilution assay. Colonies of the respective microorganism from Muller Hinton (MH) agar plates incubated overnight were suspended in MH broth media and final concentration of microorganism was adjusted to 5.0×10^5 cfu/ml. An aliquot of 10 μl of each Chain peptide, or gentamicin, tetracycline as reference antibiotics were added in differing concentrations along with 90 μl of bacterial suspension to 96 well polypropylene plates and incubated at 37° C. for 20 to 24 hours. Concentrations of Chain peptides and reference antibiotics ranged from 0.125 to 128 μg/ml and the MICs were recorded as the lowest concentration with no visual growth of bacteria. Similarly, antifungal MICs were tested in Potato dextrose broth.
Clinical strains of yeasts including Candida albicans, C. glabrata, C. parapsilosis and C. quillermondiae were also tested with the 12 Chain peptides. The minimum inhibitory concentration (MICs) varied between these peptides and are presented in Tables 4a, 4b, 4c and 5a, 5b, 5c. Peptides Chain 105, 201 and 308 are broad spectrum antimicrobials with MICs between 0.5-32 μg/ml against all the bacteria and yeasts tested, except Serratia marcescens and Proteus mirabilis, against which the MICs were between 64-128 μg/ml. Peptide Chain 306 has narrow spectrum activity against E. coli at 1 μg/ml and for the rest of the bacterial strains at >32 μg/ml (FIG. 10c).

[2] = test system: clinical strains of E. coli; assay: MIC, microdilution, clinical strains; details: microdilution, Muller Hinton broth-cation adjusted, 0.02% BSA, 0.2% acetic acid
In short: as §1

[3] = test system: clinical strains of S. pneumoniae; assay: MIC, microdilution, clinical strains; details: 0.02% BSA, 0.2% acetic acid
In short: as §1

[4] = test system: clinical strains of P. aeruginosa; assay: MIC, microdilution, clinical strains; details: 0.02% BSA, 0.2% acetic acid
In short: as §1

[5] = test system: clinical strains of E. cloacae; assay: MIC, microdilution, clinical strains; details: 0.02% BSA, 0.2% acetic acid
In short: as §1

[6] = test system: clinical strains of Proteus mirabilis; assay: MIC, microdilution, clinical strains; details: 0.02% BSA, 0.2% acetic acid
In short: as §1

[7] = test system: clinical strains of Serratia marcescens; assay: MIC, microdilution, clinical strains; details: 0.02% BSA, 0.2% acetic acid
In short: as §1

[8] = test system: clinical strains of S. aureus; assay: MIC, microdilution, clinical strains; details: 0.02% BSA, 0.2% acetic acid
In short: as §1

[9] = test system: clinical strains of K. pneumoniae; assay: MIC, microdilution, clinical strains; details: 0.02% BSA, 0.2% acetic acid
In short: as §1

C. glabrata = assay: MIC, clinical yeast strains; details: D-form peptide, concentrations tested 0.125 to 128 μg/ml
In short: as §1

C. parapsilosis = assay: MIC, clinical yeast strains; details: D-form peptide, concentrations tested 0.125 to 128 μg/ml
In short: as §1

Candida albicans = assay: MIC, clinical yeast strains; details: D-form peptide, concentrations tested 0.125 to 128 μg/ml
In short: as §1

CC[C@@H](C)[C@@H](NC(=O)[C@@H](CC(C)C)NC(=O)[C@@H](CCCNC(=N)N)NC(=O)[C@H](N)CCCNC(=N)N)C(=O)N[C@H](Cc1c[nH]c2ccccc12)C(=O)N[C@H](CCCNC(=N)N)C(=O)N[C@H](CCCNC(=N)N)C(=O)N[C@H](Cc1ccccc1)C(=O)N[C@H](CCCCN)C(=O)N[C@H](Cc1c[nH]c2ccccc12)C(=O)N[C@H](CC(C)C)C(=O)N[C@H](CCCNC(=N)N)C(=O)O [Chain204D] (H-[dR][dR][dL][dI][dW][dR][dR][dF][dK][dW][dL][dR]-OH)
Minimum inhibitory concentration, C. quillermondiae strain 1 (C. quillermondiae): 4
Minimum inhibitory concentration ([1]; Acinetobacter baumannii strain 1, Muller Hinton broth-cation adjusted): 4
Minimum inhibitory concentration ([1]; Acinetobacter baumannii strain 2, Muller Hinton broth-cation adjusted): 4
Minimum inhibitory concentration ([1]; Acinetobacter baumannii strain 3, Muller Hinton broth-cation adjusted): 4
Minimum inhibitory concentration ([1]; Acinetobacter baumannii strain 4, Muller Hinton broth-cation adjusted): 4
Minimum inhibitory concentration ([1]; Acinetobacter baumannii strain 5, Muller Hinton broth-cation adjusted): 4
Minimum inhibitory concentration ([2]; Escherichia coli strain 1): 8
Minimum inhibitory concentration ([2]; Escherichia coli strain 2): 1
Minimum inhibitory concentration ([2]; Escherichia coli strain 3): 1
Minimum inhibitory concentration ([2]; Escherichia coli strain 4): 1
Minimum inhibitory concentration ([2]; Escherichia coli strain 5): 1
Minimum inhibitory concentration ([3]; Streptococcus pneumoniae strain 1, Muller Hinton broth-cation adjusted): 4
Minimum inhibitory concentration ([3]; Streptococcus pneumoniae strain 2, Muller Hinton broth-cation adjusted): 4
Minimum inhibitory concentration ([3]; Streptococcus pneumoniae strain 3, Muller Hinton broth-cation adjusted): 4
Minimum inhibitory concentration ([3]; Streptococcus pneumoniae strain 4, Muller Hinton broth-cation adjusted): 4
Minimum inhibitory concentration ([3]; Streptococcus pneumoniae strain 5, Muller Hinton broth-cation adjusted): 4
Minimum inhibitory concentration ([4]; Pseudomonas aeruginosa strain 1, Muller Hinton broth-cation adjusted): 4
Minimum inhibitory concentration ([4]; Pseudomonas aeruginosa strain 2, Muller Hinton broth-cation adjusted): 16
Minimum inhibitory concentration ([4]; Pseudomonas aeruginosa strain 3, Muller Hinton broth-cation adjusted): 8
Minimum inhibitory concentration ([4]; Pseudomonas aeruginosa strain 4, Muller Hinton broth-cation adjusted): 8
Minimum inhibitory concentration ([4]; Pseudomonas aeruginosa strain 5, Muller Hinton broth-cation adjusted): 4
Minimum inhibitory concentration ([5]; Enterobacter cloacae strain 1, Muller Hinton broth-cation adjusted): 4
Minimum inhibitory concentration ([5]; Enterobacter cloacae strain 2, Muller Hinton broth-cation adjusted): 8
Minimum inhibitory concentration ([5]; Enterobacter cloacae strain 3, Muller Hinton broth-cation adjusted): 4
Minimum inhibitory concentration ([5]; Enterobacter cloacae strain 4, Muller Hinton broth-cation adjusted): 8
Minimum inhibitory concentration ([5]; Enterobacter cloacae strain 5, Muller Hinton broth-cation adjusted): 2
Minimum inhibitory concentration ([6]; Proteus mirabilis strain 1, Muller Hinton broth-cation adjusted): >128
Minimum inhibitory concentration ([6]; Proteus mirabilis strain 2, Muller Hinton broth-cation adjusted): 32
Minimum inhibitory concentration ([6]; Proteus mirabilis strain 3, Muller Hinton broth-cation adjusted): 64
Minimum inhibitory concentration ([6]; Proteus mirabilis strain 4, Muller Hinton broth-cation adjusted): >128
Minimum inhibitory concentration ([6]; Proteus mirabilis strain 5, Muller Hinton broth-cation adjusted): >128
Minimum inhibitory concentration ([7]; Serratia marcescens strain 1, Muller Hinton broth-cation adjusted): >128
Minimum inhibitory concentration ([7]; Serratia marcescens strain 2, Muller Hinton broth-cation adjusted): >128
Minimum inhibitory concentration ([7]; Serratia marcescens strain 3, Muller Hinton broth-cation adjusted): 128
Minimum inhibitory concentration ([7]; Serratia marcescens strain 4, Muller Hinton broth-cation adjusted): >128
Minimum inhibitory concentration ([7]; Serratia marcescens strain 5, Muller Hinton broth-cation adjusted): >128
Minimum inhibitory concentration ([8]; Staphylococcus aureus strain 1, Muller Hinton broth-cation adjusted): 1
Minimum inhibitory concentration ([8]; Staphylococcus aureus strain 2, Muller Hinton broth-cation adjusted): 2
Minimum inhibitory concentration ([8]; Staphylococcus aureus strain 3, Muller Hinton broth-cation adjusted): 2
Minimum inhibitory concentration ([8]; Staphylococcus aureus strain 4, Muller Hinton broth-cation adjusted): 1
Minimum inhibitory concentration ([8]; Staphylococcus aureus strain 5, Muller Hinton broth-cation adjusted): 1
Minimum inhibitory concentration ([9]; Klebsiella pneumoniae strain 1, Muller Hinton broth-cation adjusted): 8
Minimum inhibitory concentration ([9]; Klebsiella pneumoniae strain 2, Muller Hinton broth-cation adjusted): 4
Minimum inhibitory concentration ([9]; Klebsiella pneumoniae strain 3, Muller Hinton broth-cation adjusted): 16
Minimum inhibitory concentration ([9]; Klebsiella pneumoniae strain 4, Muller Hinton broth-cation adjusted): 4
Minimum inhibitory concentration ([9]; Klebsiella pneumoniae strain 5, Muller Hinton broth-cation adjusted): 2
Minimum inhibitory concentration, C. glabrata strain 1 (C. glabrata; clinical yeast strain 1): 4
Minimum inhibitory concentration, C. glabrata strain 2 (C. glabrata; clinical yeast strain 2): 8
Minimum inhibitory concentration, C. glabrata strain 3 (C. glabrata; clinical yeast strain 3): 32
Minimum inhibitory concentration, C. glabrata strain 4 (C. glabrata; clinical yeast strain 4): 32
Minimum inhibitory concentration, C. parapsilosis strain 1 (C. parapsilosis; clinical yeast strain 1): 4
Minimum inhibitory concentration, C. parapsilosis strain 2 (C. parapsilosis; clinical yeast strain 2): 4
Minimum inhibitory concentration, C. parapsilosis strain 3 (C. parapsilosis; clinical yeast strain 3): 8
Minimum inhibitory concentration, C. parapsilosis strain 4 (C. parapsilosis; clinical yeast strain 4): 8
Minimum inhibitory concentration, Candida albicans strain 1 (Candida albicans; clinical yeast strain 1): 8
Minimum inhibitory concentration, Candida albicans strain 2 (Candida albicans; clinical yeast strain 2): 8
Minimum inhibitory concentration, Candida albicans strain 3 (Candida albicans; clinical yeast strain 3): 8
Minimum inhibitory concentration, Candida albicans strain 4 (Candida albicans; clinical yeast strain 4): 8
Minimum inhibitory concentration, Candida albicans strain 5 (Candida albicans; clinical yeast strain 5): 8
